Tests used:
Progestin Receptor = target: T1, Progestin Receptor (Oryctolagus cuniculus, UniProt P06186); assay: Progestin Receptor Binding (competitive binding, 3H-promegestone, rabbit uterus receptor preparation); set-up: species or system New Zealand rabbits; conditions: 3H-promegestone displacement, 4° C., 18 h
T1 construct: The high speed supernatant fraction was used as the receptor preparation; from tissue; host or cells: uterus of New Zealand rabbits, 200,000×g supernatant (cytosol)
T1 sequence (P06186 1-930): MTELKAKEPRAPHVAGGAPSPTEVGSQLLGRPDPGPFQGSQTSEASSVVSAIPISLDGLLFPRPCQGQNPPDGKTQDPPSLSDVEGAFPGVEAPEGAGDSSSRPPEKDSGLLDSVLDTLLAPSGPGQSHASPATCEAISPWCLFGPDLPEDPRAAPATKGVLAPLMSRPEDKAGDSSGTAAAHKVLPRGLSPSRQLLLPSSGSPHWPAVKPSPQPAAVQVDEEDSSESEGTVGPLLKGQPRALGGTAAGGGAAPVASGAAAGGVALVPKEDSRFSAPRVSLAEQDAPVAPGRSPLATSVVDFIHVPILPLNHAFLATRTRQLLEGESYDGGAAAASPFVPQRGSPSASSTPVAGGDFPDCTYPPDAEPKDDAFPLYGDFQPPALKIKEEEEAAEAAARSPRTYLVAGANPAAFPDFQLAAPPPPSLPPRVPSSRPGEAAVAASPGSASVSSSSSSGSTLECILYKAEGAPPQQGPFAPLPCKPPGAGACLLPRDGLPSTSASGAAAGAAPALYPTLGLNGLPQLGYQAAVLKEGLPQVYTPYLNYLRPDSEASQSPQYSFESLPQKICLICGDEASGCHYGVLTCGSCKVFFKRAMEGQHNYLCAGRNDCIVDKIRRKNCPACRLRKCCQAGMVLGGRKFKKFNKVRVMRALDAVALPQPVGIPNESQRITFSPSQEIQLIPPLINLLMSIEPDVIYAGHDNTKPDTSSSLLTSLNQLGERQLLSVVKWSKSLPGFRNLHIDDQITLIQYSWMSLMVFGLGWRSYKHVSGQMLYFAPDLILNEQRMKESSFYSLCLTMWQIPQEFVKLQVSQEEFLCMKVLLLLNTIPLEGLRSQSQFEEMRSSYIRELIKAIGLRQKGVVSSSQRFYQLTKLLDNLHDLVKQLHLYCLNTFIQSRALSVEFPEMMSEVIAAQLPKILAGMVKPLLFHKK
Protocol: Progestin Receptor Binding
The procedure used was essentially that of J. L. McGuire, C.
Uteri from New Zealand rabbits (1.5 to 2.5 kg) were placed in a cold buffer A (0.01 mol Tris-HCl, pH 8.0, 0.001 mol EDTA, 0.25 mol sucrose). The uteri were minced, washed and homogenized in cold buffer A. The homogenate (2 g wet tissue/mL buffer) was centrifuged at 200,000×g for 1 h at 4° C. The high speed supernatant fraction was used as the receptor preparation.
A competitive binding assay was performed by mixing 3H-promegestone with the receptor preparation and adding a known amount of unlabeled compound. This mixture was incubated at 4° C. for 18 h. The compounds bound to the receptor were separated from those which were free in solution using dextran coated charcoal and the amount of isotope bound to the receptor was determined by scintillation counting. The extent of the compound's interaction with the receptor is measured as the percent reduction in the total isotope bound caused by the unlabeled test compound as compared to the control levels. The receptor screen consists of measuring the reduction in the total isotope bound caused by the unlabeled test compound at […] final concentrations.

[1] = test system: T47D human breast carcinoma cells; assay: Assay to Demonstrate Ability to Increase Breast Cell Proliferation ([3H]-thymidine incorporation); type: cell-based; conditions: at the concentration of the same table line, control level set at 100%
Protocol: This assay is used to measure the sex steroid effects of compounds. The activity of compounds in this assay is an indication of their potential use as replacements for naturally occuring hormones in individuals with sex hormone deficiencies.
T47D human breast carcinoma cells are grown in 96-well plates in phenol-red free nutrient media at 37° C. for 48 hours. Conditioned media is removed and replaced with fresh media containing test compounds dissolved in DMSO (0.1% final concentration) and the cells are incubated for an additional 18-20 hours at 37° C. [^3 H]-thymidine is added to each well and allowed to incorporate into DNA for 4 hours. Unlabeled thymidine is then added to terminate the reaction, and the cultures are then washed, trypsinized and harvested. The amount of [^3 H]-thymidineincorporated into DNA is determined by liquid scintillation. Data for each well are expressed as a percent above control level, which is set at 100%. The concentration at which maximal deviation from control is found and the magnitude of that percent deviation is reported. Table T lists the data for some of the compounds of this invention.

[2] = test system: endometrial proliferation; assay: Assay to Determine Effect of Compound on Uterine Proliferation (Clauberg Test); type: in vivo, immature female white rabbits; conditions: 40 mg/kg subcutaneously; scale 0 (no response)-4 (maximum response); estradiol-primed immature rabbits, daily for five days
Protocol: Assay to Determine Effect of Compound on Uterine Proliferation
The procedure used was essentially that of M. K. McPhail, J. Physiology, 83, 145 (1934). Groups of immature female white rabbits (750-950 g) were primed with a daily subcutaneous injection, for 6 days, with 5 micrograms of 17β-estradiol in 0.2 ml of sesame oil. Starting on the 7th day, they received the test compound daily for five days in the appropriate vehicle. The rabbits were sacrificed approximately 24 hours after the last administration, and the uteri were excised, cleaned and weighed. Portions of both uterine horns were fixed in 10% neutral formalin, sectioned at […] and stained with hematoxylin and eosin. Progestational activity was assessed as in the McGinty Test. The evaluation for endometrial proliferation was made according to a McPhail Index. Each slide was graded for each rabbit on a 0 (no response)-4 (maximum response) scale.

IC50 (Progestin Receptor)	Structure (SMILES)	% control (magnitude of maximal deviation from control) [1]	McPhail Index [2]
19 nM	CCC[C@]12Cc3ccccc3C1=C[C@@H](C)c1ccc(N)cc1C2 (relative stereo) [Compound 85]	215%	
57 nM	CCC12Cc3ccccc3C(C)CC1c1ccccc1C2 (stereo not shown) [Compound 53]	50%	
55 nM	CC1CC2c3ccc(F)cc3CC2(C)Cc2cc(Oc3nnnn3-c3ccccc3)ccc21 (stereo not shown) [Compound 63, 6,11a-Dimethyl-2-fluoro-9-(1-phenyl-5-tetrazolyl)-oxy-4b,5,6,11,11a,12-hexahydrodibenz[a,f]azulene]	94%	
34 nM	CC1CC2c3ccccc3CC2(C)Cc2cc(F)ccc21 (stereo not shown) [Compound 88, 6,11a-Dimethyl-9-fluoro-4b,5,6,11,11a,12-hexahydrodibenz[a,f]azulene]	187%	
137 nM	CC1CC2c3ccccc3CC2(C)Cc2cc(N)ccc21 (stereo not shown) [Compound 89, 9-Amino-6,11a-dimethyl-4b,5,6,11,11a,12-hexahydrodibenz[a,f]azulene]		
115 nM	CC(=O)Nc1cc2c(cc1[N+](=O)[O-])C(C)CC1c3ccccc3CC1(C)C2 (stereo not shown) [Compound 91]		
34 nM	CC12Cc3ccccc3C1CCc1c(N)cccc1C2 (stereo not shown) [Compound 96]		
60 nM	CC12Cc3ccccc3C1CCc1c(F)cccc1C2 (stereo not shown) [Compound 98]		
1470 nM	COc1cc2c(cc1[N+](=O)[O-])C(C)CC1c3ccccc3CC1(C)C2 (stereo not shown) [Compound 102, 4b,5,6,11,11a,12-Hexahydro-9-methoxy-6,11a-dimethyl-8-nitro-dibenz[a,f]azulene]		
105 nM	COc1ccc2c(c1)CC1(C)Cc3ccccc3C1=CC2C (stereo not shown) [Compound 106, 6,11,11a,12-Tetrahydro-9-methoxy-6,11a-dimethyldibenz[a,f]-azulene]		
678 nM	COc1ccc2c(c1)CC1(C)Cc3ccccc3C1CC2C (stereo not shown) [Compound 107, 4b,5,6,11,11a,12-Hexahydro-9-methoxy-6,11a-dimethyldibenz-[a,f]azulene]		
29 nM	CC(=O)Oc1cccc2c1CCC1c3ccccc3CC1(C)C2 (stereo not shown) [Compound 108]		

Continued, molecule first:

Structure (SMILES)	IC50 (Progestin Receptor)	% control (magnitude of maximal deviation from control) [1]	McPhail Index [2]
CCC[C@]12Cc3ccccc3C1=C[C@@H](C)c1ccc(OC)cc1C2 (relative stereo) [Compound 38]	25 nM	189%	4
CCCC12Cc3cc(OC)ccc3CC=C1c1ccccc1C2 (stereo not shown) [Compound 27]	27 nM	224%	
COc1ccc2c(c1)CC1(C)Cc3cc(F)ccc3C1=CC2C (stereo not shown) [Compound 30, 2-Fluoro-6,11,11a,12-tetrahydro-9-methoxy-6,11a-dimethyldibenz[a,f]azulene]	6 nM	204%	
CCC12Cc3cc(OC)ccc3CC=C1c1ccccc1C2 (stereo not shown) [Compound 43]	57 nM	151%	
COc1ccc2c(c1)CC1(C)Cc3cc(F)ccc3C1C(O)C2C (stereo not shown) [Compound 45]	115 nM	191%	
Cc1ccc2c(c1)CC1(C)Cc3ccccc3C1=CC2 (stereo not shown) [Compound 70]	42 nM	173%	
COc1ccc2c(c1)CC1(C)Cc3cc(OC)ccc3C1C(O)C2C (stereo not shown) [Compound 78]		112%	
COc1cc2c(cc1[N+](=O)[O-])C(C)C(O[N+](=O)[O-])C1c3ccccc3CC1(C)C2 (stereo not shown) [Compound 81, 5-(6,11a,-Dimethyl-9-methoxy-8-nitro-4b,5,6,11,11a,12-hexahydro)dibenz[a,f]azulenyl nitrate ester]	82 nM	56%	
CC(=O)Nc1ccc2c(c1)CC1(C)Cc3ccccc3C1=CC2C (stereo not shown) [Compound 83, 9-Acetamido-6,11,11a,12-tetrahydro-6,11a-dimethyldibenz[a,f]azulene]	1970 nM		
CC(=O)Nc1ccc2c(c1)CC1(C)Cc3ccccc3C1=CC2 (stereo not shown) [Compound 95]	1770 nM		
CC1CC2c3ccccc3CC2(C)Cc2c1cc([N+](=O)[O-])c(O)c2[N+](=O)[O-] (stereo not shown) [Compound 101, 4b,5,6,11,11a,12-Hexahydro-9-hydroxy-6,11a-dimethyl-8,10-dinitrodibenz[a,f]azulene]	621 nM		
C=C1C=C2c3ccccc3CC2(C)Cc2cc(OC)ccc21 (stereo not shown) [Compound 105, 6,11,11a,12-Tetrahydro-6-methenyl-9-methoxy-11a-methyldibenz[a,f]azulene]	676 nM		
CC(=O)Oc1cccc2c1CC=C1c3ccc(F)cc3CC1(C)C2 (stereo not shown) [Compound 113]	6 nM	470%	
COc1ccc2c(c1)CC1(C)Cc3cccc(OC(C)=O)c3CC=C21 (stereo not shown) [Compound 117]	93 nM	160%	

From patent publication US5834521A, “Substituted dibenz (A F)azulenes and methods of preparation” (Ortho Pharmaceutical Corporation, priority 1996, dated 1998)
